From PubChem BioAssay (NCI)
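Tested at 5 concentrations; 48 h exposure; 96-well plates; endpoints linearly interpolated, else capped at highest concentration. GI50 marks 50% less growth. TGI: concentration producing complete growth inhibition.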

Experiments:
Assay in all cases: NCI tumour cell line growth inhibition, 48 h
NCI-H226 lung = system: NCI-H226 lung
BT-549 breast = system: BT-549 breast
DU-145 prostate = system: DU-145 prostate
HS 578T breast = system: HS 578T breast
MDA-MB-231 breast = system: MDA-MB-231 breast
MDA-MB-435 = system: MDA-MB-435
PC-3 prostate = system: PC-3 prostate
P388 leukemia = system: P388 leukemia
P388/ADR leukemia = system: P388/ADR leukemia
SN12K1 renal = system: SN12K1 renal

Compound | TGI (NCI-H226 lung) | GI50 (BT-549 breast) | TGI (BT-549 breast) | GI50 (DU-145 prostate) | TGI (DU-145 prostate) | GI50 (HS 578T breast) | TGI (HS 578T breast) | GI50 (MDA-MB-231 breast) | TGI (MDA-MB-231 breast) | GI50 (MDA-MB-435) | TGI (MDA-MB-435) | GI50 (PC-3 prostate) | TGI (PC-3 prostate) | TGI (P388 leukemia) | TGI (P388/ADR leukemia) | TGI (SN12K1 renal)
Cc1cc(=O)[nH]c(NN2C(Cl)C(=O)C2c2c(O)ccc3ccccc23)n1 (configuration not stated) | 45.6 µM | – | – | – | – | – | – | – | – | – | – | – | – | – | – | –
c1ccc(C2=NN[C@H](c3cn(-c4ccccc4)nc3-c3ccccc3)C2)cc1 | – | 5.9 µM | > 100 µM | 71.8 µM | > 100 µM | 2.63 µM | 7.45 µM | 3.86 µM | > 100 µM | > 100 µM | > 100 µM | 6.22 µM | > 100 µM | – | – | –
Cc1n(CC(C)C)c2c([n+]1CC(=O)c1ccc([N+](=O)[O-])cc1)C(=O)c1ccccc1C2=O | 0.0523 µM | – | – | – | – | – | – | – | – | – | – | – | – | 0.563 µM | 61.3 µM | 0.279 µM
